Where two headings read alike, the source gives them in different places.
Legend:
[1] = molecular target: T1, nNOS (Rattus norvegicus, UniProt P29476); test: Time-dependent inactivation of nNOS (residual activity, oxyhemoglobin oxidation); assay type: biochemical; design: made in house; host or cells: stably transfected kidney 293 cells; details: 25° C.; for inactivation of nNOS relative to 2.0 μM L-NMA (FIG. 2): 0.5 μM L-VNIO vs 2.0 μM L-NMA; for inactivation of nNOS (in words, FIG. 2): under the conditions examined
T1 sequence (P29476 whole entry): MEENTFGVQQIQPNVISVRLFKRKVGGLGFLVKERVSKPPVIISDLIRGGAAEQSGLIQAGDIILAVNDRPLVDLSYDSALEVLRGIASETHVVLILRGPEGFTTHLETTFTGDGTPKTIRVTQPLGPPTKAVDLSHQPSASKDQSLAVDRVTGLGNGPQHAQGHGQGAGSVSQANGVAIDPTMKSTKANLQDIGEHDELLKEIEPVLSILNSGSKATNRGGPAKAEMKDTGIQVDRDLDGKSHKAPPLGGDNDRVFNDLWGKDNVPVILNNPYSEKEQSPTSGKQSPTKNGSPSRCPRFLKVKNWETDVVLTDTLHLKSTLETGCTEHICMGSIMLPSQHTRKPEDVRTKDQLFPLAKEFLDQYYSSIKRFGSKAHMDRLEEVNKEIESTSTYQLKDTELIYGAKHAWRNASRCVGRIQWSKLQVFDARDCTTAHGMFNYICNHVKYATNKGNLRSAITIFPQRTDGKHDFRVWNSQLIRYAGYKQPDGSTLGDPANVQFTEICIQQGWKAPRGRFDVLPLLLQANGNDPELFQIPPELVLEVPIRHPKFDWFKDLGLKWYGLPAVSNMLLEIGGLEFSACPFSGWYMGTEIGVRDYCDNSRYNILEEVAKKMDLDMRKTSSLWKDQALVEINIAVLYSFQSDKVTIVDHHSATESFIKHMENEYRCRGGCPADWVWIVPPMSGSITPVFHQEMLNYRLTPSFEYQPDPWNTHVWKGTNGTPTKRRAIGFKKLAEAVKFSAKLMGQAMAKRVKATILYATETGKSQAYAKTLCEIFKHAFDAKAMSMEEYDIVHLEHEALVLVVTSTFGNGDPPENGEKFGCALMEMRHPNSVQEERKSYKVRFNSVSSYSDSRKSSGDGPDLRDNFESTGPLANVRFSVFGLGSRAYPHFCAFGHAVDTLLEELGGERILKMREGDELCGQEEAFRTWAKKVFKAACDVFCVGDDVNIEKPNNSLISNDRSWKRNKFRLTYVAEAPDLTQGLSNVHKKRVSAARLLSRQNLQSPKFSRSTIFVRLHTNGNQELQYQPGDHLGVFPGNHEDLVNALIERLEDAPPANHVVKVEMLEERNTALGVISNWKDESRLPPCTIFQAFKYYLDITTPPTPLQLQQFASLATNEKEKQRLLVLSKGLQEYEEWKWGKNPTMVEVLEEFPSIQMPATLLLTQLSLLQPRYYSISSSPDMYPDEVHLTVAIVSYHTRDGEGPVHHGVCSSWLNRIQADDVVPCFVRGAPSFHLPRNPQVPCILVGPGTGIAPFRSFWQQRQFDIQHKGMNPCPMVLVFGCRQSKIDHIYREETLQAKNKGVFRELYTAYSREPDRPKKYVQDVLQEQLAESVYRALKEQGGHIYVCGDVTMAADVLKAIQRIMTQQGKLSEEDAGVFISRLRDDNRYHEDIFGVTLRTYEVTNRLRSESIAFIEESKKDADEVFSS
Experimental: Nitric oxide-mediated oxidation of oxyhemoglobin was monitored at 401 nm (ε=0.038 μM^-1); the reference cuvette contained a similar mixture without enzyme. Rates were measured and used to calculate the residual activity. The results are shown in FIG. 1 where for ln A/Ao in the legend for the vertical axis, A is the residual activity of NOS at the time indicated and Ao is the activity of NOS at time zero (i.e., initial activity).
Determinations were carried out as described in Example XI. The results are shown in FIG. 2 where in (A/Ao) means the same as in Example XI.
Testing was carried out to compare inactivation by L-VNIO of the nNOS, eNOS and iNOS isoforms. Determinations were carried out as set forth in Example XI except that the reaction mixtures for iNOS omitted CaCl2 and calmodulin.

[2] = molecular target: T2, eNOS (Bos taurus, UniProt P29473); test: biochemical
T2 sequence (P29473 2-1205): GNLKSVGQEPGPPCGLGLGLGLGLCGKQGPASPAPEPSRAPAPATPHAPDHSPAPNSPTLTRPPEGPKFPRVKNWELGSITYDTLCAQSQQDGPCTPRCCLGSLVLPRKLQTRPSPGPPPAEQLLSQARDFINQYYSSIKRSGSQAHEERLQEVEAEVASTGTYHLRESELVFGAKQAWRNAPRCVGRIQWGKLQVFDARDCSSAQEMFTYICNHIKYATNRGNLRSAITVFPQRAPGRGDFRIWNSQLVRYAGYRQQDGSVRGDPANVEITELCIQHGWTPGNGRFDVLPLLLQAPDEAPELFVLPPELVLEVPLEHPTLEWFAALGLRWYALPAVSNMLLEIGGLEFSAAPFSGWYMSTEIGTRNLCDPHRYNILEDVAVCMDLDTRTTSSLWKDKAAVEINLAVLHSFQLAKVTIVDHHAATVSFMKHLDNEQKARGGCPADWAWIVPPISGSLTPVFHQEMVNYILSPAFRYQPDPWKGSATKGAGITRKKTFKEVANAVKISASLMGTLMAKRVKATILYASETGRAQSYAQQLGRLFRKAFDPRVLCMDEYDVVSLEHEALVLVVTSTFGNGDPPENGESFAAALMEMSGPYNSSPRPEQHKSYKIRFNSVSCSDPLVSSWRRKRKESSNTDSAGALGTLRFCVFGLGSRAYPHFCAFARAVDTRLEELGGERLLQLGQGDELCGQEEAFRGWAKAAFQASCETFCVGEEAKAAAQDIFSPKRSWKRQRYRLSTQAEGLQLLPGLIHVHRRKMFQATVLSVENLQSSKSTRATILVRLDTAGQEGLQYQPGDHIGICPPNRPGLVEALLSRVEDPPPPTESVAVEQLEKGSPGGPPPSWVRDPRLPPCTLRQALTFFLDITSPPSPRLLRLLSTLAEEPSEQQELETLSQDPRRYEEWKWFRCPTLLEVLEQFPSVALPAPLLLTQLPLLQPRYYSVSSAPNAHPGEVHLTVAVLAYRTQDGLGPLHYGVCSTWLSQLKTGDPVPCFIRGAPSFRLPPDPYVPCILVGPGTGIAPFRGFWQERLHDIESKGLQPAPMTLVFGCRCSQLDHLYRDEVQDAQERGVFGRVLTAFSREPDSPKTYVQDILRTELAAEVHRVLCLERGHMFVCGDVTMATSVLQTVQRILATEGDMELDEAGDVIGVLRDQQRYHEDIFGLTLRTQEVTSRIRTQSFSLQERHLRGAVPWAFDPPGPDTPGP

[3] = molecular target: T3, iNOS (Mus musculus, UniProt P29477); test: biochemical
T3 sequence (P29477 whole entry): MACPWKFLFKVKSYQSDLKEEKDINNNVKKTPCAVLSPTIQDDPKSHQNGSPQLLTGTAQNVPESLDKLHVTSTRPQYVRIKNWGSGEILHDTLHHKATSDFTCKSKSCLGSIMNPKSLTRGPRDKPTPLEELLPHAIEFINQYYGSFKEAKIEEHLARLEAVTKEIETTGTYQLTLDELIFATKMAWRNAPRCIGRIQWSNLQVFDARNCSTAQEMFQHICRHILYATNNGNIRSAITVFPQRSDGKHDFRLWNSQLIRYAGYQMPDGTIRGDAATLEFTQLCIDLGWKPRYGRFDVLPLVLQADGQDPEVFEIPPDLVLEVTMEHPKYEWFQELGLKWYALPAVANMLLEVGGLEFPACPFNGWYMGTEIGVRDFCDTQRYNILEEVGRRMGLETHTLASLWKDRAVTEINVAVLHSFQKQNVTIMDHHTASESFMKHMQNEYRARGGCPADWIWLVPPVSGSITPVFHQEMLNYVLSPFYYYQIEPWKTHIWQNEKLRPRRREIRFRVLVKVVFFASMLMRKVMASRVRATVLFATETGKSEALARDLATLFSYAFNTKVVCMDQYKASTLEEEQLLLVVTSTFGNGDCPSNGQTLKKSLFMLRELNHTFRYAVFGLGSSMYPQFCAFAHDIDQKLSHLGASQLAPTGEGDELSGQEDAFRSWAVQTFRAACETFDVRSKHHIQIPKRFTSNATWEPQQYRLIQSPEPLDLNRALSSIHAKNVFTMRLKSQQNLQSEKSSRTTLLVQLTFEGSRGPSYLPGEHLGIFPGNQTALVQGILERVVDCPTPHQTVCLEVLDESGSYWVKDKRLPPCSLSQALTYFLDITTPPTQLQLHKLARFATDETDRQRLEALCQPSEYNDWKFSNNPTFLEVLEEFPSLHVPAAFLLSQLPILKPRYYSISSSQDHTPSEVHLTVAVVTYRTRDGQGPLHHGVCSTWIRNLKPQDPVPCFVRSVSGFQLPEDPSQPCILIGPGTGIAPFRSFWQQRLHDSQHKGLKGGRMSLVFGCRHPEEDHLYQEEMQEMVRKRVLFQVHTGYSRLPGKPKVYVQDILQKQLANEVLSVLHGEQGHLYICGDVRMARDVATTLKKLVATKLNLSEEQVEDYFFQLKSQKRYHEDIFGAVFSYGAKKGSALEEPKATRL

[4] = molecular target: T1, nNOS; details: for nNOS Ki/Km: Ki divided by Km for L-arginine; for selectivity for nNOS (in words): vs eNOS (and iNOS for L-VNIO), on a Ki/Km basis
[5] = molecular target: T2, eNOS; details: for eNOS Ki/Km: Ki divided by Km for L-arginine
[6] = molecular target: T3, iNOS; details: for iNOS Ki/Km: Ki divided by Km for L-arginine
[7] = molecular target: T1, nNOS; test: biochemical
[8] = molecular target: T2, eNOS; test: Time-dependent inactivation of eNOS (residual activity, oxyhemoglobin oxidation); assay type: biochemical, bovine; details: 25° C.
[9] = molecular target: T3, iNOS; test: Time-dependent inactivation of iNOS (residual activity, oxyhemoglobin oxidation; CaCl2 and calmodulin omitted); assay type: biochemical; details: up to 100 μM L-VNIO, 25° C.
[10] = system: female Sprague-Dawley CFY rats; test: Stroke volume after carotid artery ligation in rats; assay type: in vivo, rat; details: 25 mg/kg i.v. bolus 30 minutes after occlusion; histology 24 hours after artery occlusion
Experimental: Both carotid arteries are ligated in two groups of female Sprague-Dawley CFY rats. After 10 minutes, ligations are released and flow is again allowed.
In the case of one group, L-VNIO (25 mg/kg) is administered by bolus injection through a venous catheter 30 minutes after occlusion of the arteries. In the case of the other group, no therapeutic agent is administered.

[11] = Migraine headache treatment of a patient with L-VNIO tablets; assay type: in vivo, human
Experimental: A person with a history of migraine headaches is provided with tablets containing 500 mg of L-VNIO. They are instructed to take one tablet at the first sign of migraine headache development and to take a second table 60 minutes later if the headache continues to develop. When a right-sided migraine headache begins, they take one tablet as instructed, and headache pain begins to decrease within 15 minutes and is absent within 45 minutes. […] The women therefore takes a second table as instructed and headache pain is absent within 30 minutes of taking the second tablet.

[12] = first migraine, one 500 mg tablet

SMILES	Ki [2]	Ki [3]	nNOS Ki/Km [4]	eNOS Ki/Km [5]	iNOS Ki/Km [6]	inactivation of nNOS (in words, FIG. 2) [1]	inactivation of nNOS relative to 2.0 μM L-NMA (FIG. 2) [1]	selectivity for nNOS (in words) [4]	also measured
CNC(=N)NCCC[C@H](N)C(=O)O [L-NMA, N^ω -methyl-L-arginine, reference compound]							comparable		
CCCC(=N)NCCC[C@H](N)C(=O)O [ethyl-L-NIO, reference compound]	18 µM	12 µM	3.79	5.00	0.96	does not inactivate nNOS		do not show biologically significant selectivity for nNOS over eNOS	selectivity for iNOS over nNOS and eNOS ([6]; on a Ki/Km basis): 3 to 5 fold; Ki [7]: 5.3 µM
C=CCC(=N)NCCC[C@H](N)C(=O)O [L-VNIO, N^5-(1-imino-3-butenyl)-L-ornithine]	12 µM		0.07	3.33	4.80		comparable with that seen with 2.0 μM L-NMA	selective inhibitor of nNOS	inactivation of eNOS (FIG. 3) ([8]; 10 μM L-VNIO): relatively weak inactivator of eNOS; rate of inactivation of eNOS compared with nNOS (FIG. 3) ([8]; 20-fold higher concentration of L-VNIO: 10 μM eNOS vs 0.5 μM nNOS): does not match that seen with nNOS; inactivation of iNOS (FIG. 3) [9]: does not inactivate iNOS; stroke volume compared to group receiving no treatment [10]: significant reduction in stroke volume; time until headache pain begins to decrease [11, 12]: ≤ 15 min; time until headache pain is absent [11, 12]: ≤ 45 min; pain relief by the first tablet, following day ([11]; following day, first 500 mg tablet): pain is not fully alleviated by the first tablet; time until headache pain is absent after the second tablet ([11]; following day, second 500 mg tablet 60 minutes after first): ≤ 30 min; inhibition of nNOS (in words) ([4]; conclusion from Table I): potent inhibitor of nNOS; Ki ([4]; read-out: nNOS Ki, rat nNOS, 25° C., pH 7.4, initial rate conditions, duplicates agreed within ±5%): 0.1 µM; inhibition of eNOS (in words) ([5]; conclusion from Table I): poor inhibitor of eNOS; inhibition of iNOS (in words) ([6]; conclusion from Table I): poor inhibitor of eNOS and INOS; Ki ([6]; read-out: iNOS Ki, mouse iNOS, 25° C., pH 7.4, initial rate conditions, duplicates agreed within ±5%): 60 µM; inactivation of nNOS relative to 10 μM L-NIO (FIG. 2) ([1]; 0.5 μM L-VNIO vs 10 μM L-NIO): greater than that seen with 10 μM L-NIO; inactivation of nNOS (FIG. 3) ([1]; 0.5 μM L-VNIO): strong inactivator of nNOS; inactivation of nNOS (FIG. 1) ([1]; L-VNIO 0.1-0.8 μM, D-VNIO 100 μM): caused a first-order inactivation of nNOS

The next lines start with results.

Ki [2]	Ki [3]	nNOS Ki/Km [4]	eNOS Ki/Km [5]	iNOS Ki/Km [6]	inactivation of nNOS (in words, FIG. 2) [1]	SMILES	inactivation of nNOS relative to 2.0 μM L-NMA (FIG. 2) [1]	selectivity for nNOS (in words) [4]	also measured
3.9 µM	3.9 µM					CC(=N)NCCC[C@H](N)C(=O)O [L-NIO]			
10 µM	9.5 µM				much weaker inactivator of nNOS	CCC(=N)NCCC[C@H](N)C(=O)O [methyl-L-NIO]			

Source: patent US6127420A, “L-N^5 -(1-imino-3-alkenyl) ornithine and related compounds and use thereof” (priority 1998, dated 2000)
